Like-named read-outs stand apart in the source and are kept apart here. A value given as a limit tells only on which side of the number the result lay.

The nature of data set [1]: in vivo. Further details: species or system rat. The conditions noted are these: for AUC(0-t) / Cmax / tmax / half-life: oral JHT 2 g/kg, non-compartmental; for concentration at 1 h / concentration at 24 h: rat, po, 2 g/kg; for concentration at 1 h: plasma; for concentration at 24 h: in vivo, 24 h after oral JHT 2 g/kg. As to the method: The higher dose than that in the pharmacological test was used to detect more constituents. […] In some experiments to deconjugate glucuronidated polyphenols, the samples were incubated with 75 mmol/L phosphate buffer containing 200 units/mL β-glucuronidase from Escherichia coli (Sigma-Aldrich) for 2 h at 37 °C.
For quantification of liquiritin, liquiritigenin, isoliquiritin, isoliquiritigeniin, hesperidin, hesperetin, castalagin, and all flavonoid glucuronides, 25–60 µL of standard solution and 25 µL of internal standard solution were added to 200–300 µL of plasma samples, followed by mixing well. Methanol (750–800 µL) was added to the solutions, followed by mixing and centrifugation (7000 g, 5 min). The supernatants were collected and dried at 40 °C under a stream of nitrogen gas. Then, the dried residue was dissolved in 50–100 μL of the HPLC mobile phase of each analytical method, and a 1–20 μL portion was injected into the LC-MS/MS systems. For quantification of genistein, luteolin, quercetin, (+)-catechin, (−)-epicatechin gallate, (±)-gallocatechin, Gallic acid, 4-O-methylgallic acid, hamamelitannin, 1,2,3,6-tetra-O-galloyl glucose, 1,2,3,4,6-penta-O-galloyl glucose, eugeniin, and 1-desgalloyl eugeniin, 200 μL of plasma samples were used. The amounts were measured using the same procedure, as described previously, except ethyl acetate (500 μL) and 2% acetic acid (100 μL), instead of methanol, were used concurrently as an extraction solution.
Plasma pharmacokinetic data were analyzed by non-compartmental modeling using Phoenix WinNonlin (version 6.3, Certara L.P., St. Louis, MO, USA) to determine various pharmacokinetic constants including the maximum concentration (Cmax), time to maximum concentration (tmax), apparent elimination half-life (t1/2), and area under the plasma concentration-time curve from time zero to the last observation (AUC0–last). The t1/2 was […] loge2/ke, where ke is the terminal elimination (at least three data points on the descending linear limb) rate constant.

Data set [2] in a line: Antioxidant assay, hydrogen peroxide-dependent oxidation (OxiSelect In vitro ROS/RNS Assay, DCFH-DiOxyQ). Format: biochemical. The conditions noted are these: for Antioxidant activity, IC50, Hydrogen Peroxide: tested at 0.1-30 μmol/L, N = 3, n.d. = not detectable at the maximal concentration (30 μmol/L); for activity against ROS (in words): hydrogen peroxide-dependent oxidation; for anti-ROS activity of glucuronide compared with its aglycone: serially-diluted concentrations. As to the method: Figure 4 Concentration dependency of flavonoid glucuronides and comparison with aglycones. Glucuronides and aglycones of flavonoid were assayed at serially-diluted concentrations to assess on hydrogen peroxide-dependent oxidation. Test samples were incubated with hydrogen peroxide for 5 min, followed by mixing with a probe of oxidant activity. After 15 min incubation, the hydrogen peroxide-dependent fluorescent intensity was measured. Data are shown as mean ± S.E. of triplicates. To assess ROS, OxiSelect In vitro ROS/RNS Assay kits ([…], Minneapolis, MN, USA) were used according to manufacturer’s instructions. Briefly, a test sample was incubated with 2.5 μmol/L of hydrogen peroxide for 5 min, and dichlorodihydrofluorescin DiOxyQ (DCFH-DiOxyQ) was added as a probe of oxidant activity. After 15 min incubation, the hydrogen peroxide-dependent fluorescent intensity was measured using a fluorescent plate reader (Infinite M200; Tecan, Wako Pure Chemical Industries). Percentage of inhibition of ROS was calculated using the following equation: [1 − (sample RFU^a − base RFU^b)/(control RFU^c − base RFU^b)] × 100 (1) where RFU is a relative fluorescent unit of reaction solution, a is RFU of DCFH-DiOxyQ with hydrogen peroxide and sample, b is RFU of DCFH-DiOxyQ alone, and c is RFU of DCFH-DiOxyQ with hydrogen peroxide.

Data set [3] in a line: Antioxidant assay, nitric oxide generated from NOR3 (Griess reagent). The conditions noted are these: for activity against nitric oxide (in words): nitric oxide reaction. Format: biochemical. As to the method:
To quantify nitric oxide, a test sample was incubated at 37 °C for 150 min in PBS supplemented with 30 μmol/L of (±)-(E)-4-ethyl-2-[(E)-hydroxyimino]-5-nitro-3-hexenamide (NOR3). Nitric oxide generated naturally from NOR3, was measured using the Griess reagent (1% sulfanilamide, 0.1% N-(1-naphthyl) ethylenediamine dihydrochlride in 5% H3PO4). Briefly, 100 μL of the reacted solution was incubated for 5 min with 100 μL Griess reagent. Optical densities at 540 nm were then measured.
For orientation: Griess reagent forms a coloured azo dye with nitrite.

Where [4] appears, read: rat plasma after oral JHT 2 g/kg.
The mark [5] stands for this setting: rat plasma, 1 h after oral JHT 2 g/kg, read-out: plasma concentration before β-glucuronidase treatment.
The mark [6] stands for this setting: rat plasma, 6 h after oral JHT 2 g/kg.

`O=C(O)[C@H]1O[C@@H](Oc2cc(O)c3c(=O)cc(-c4ccc(O)c(O)c4)oc3c2)[C@H](O)[C@@H](O)[C@@H]1O` [LTN-7G, luteolin 7-O-glucuronide]: the “appearance / detection in plasma” value in data set [1] (setting [4]) is “did not appear in the plasma”.

Usually AUC(0-t) stands for the area under the concentration-time curve up to a stated or last time point. Read a high AUC(0-t) as more exposure. The Cmax is the highest concentration seen after dosing. As to `O=C(C=Cc1ccc(O)cc1)c1ccc(O)cc1OC1OC(C(=O)O)C(O)C(O)C1O` (stereo not shown) [Isoliquiritigenin 2′-O-glucuronide, isoliquiritigenin 2′-O-glucuronide], the “Antioxidant activity, IC50, Hydrogen Peroxide” value in data set [2] stood at 0.704 µg/mL. Further, in data set [1] (rat plasma), the AUC(0-t) turned out to be 11.6 ng·h/mL, the Cmax is 3.19 ng/mL and the tmax stood at 0.250 H.

Usually half-life stands for the time in which the quantity being followed falls by half. In the case of `COc1c(O)cc(C(=O)O)cc1O` [4-O-Methylgallic acid, 4-O-methylgallic acid], the “Antioxidant activity, IC50, Hydrogen Peroxide” value in data set [2] is reported as “not detectable even at the highest concentration”. Besides, in data set [1] (rat plasma, 1 h after oral JHT 2 g/kg), the “plasma concentration after β-glucuronidase treatment” value is on record as “unchanged”. In data set [1] (rat plasma), this molecule had an AUC(0-t) of 32.7 ng·h/mL, a peak concentration (Cmax) of 6.65 ng/mL, a half-life of 97.2 min and a tmax of 2.00 H. Besides, the concentration at 1 h in data set [1] (setting [5]) amounted to 5.57 ng/mL. Also, in data set [3] (tested at 0.1-30 μmol/L, N = 3, n.d. = not detectable at the maximal concentration (30 μmol/L)), the “Antioxidant activity, IC50, Nitric Oxide” value was 3.59 µg/mL.

As for `O=C1CC(c2ccc(OC3OC(C(=O)O)C(O)C(O)C3O)cc2)Oc2cc(O)ccc21` (stereo not shown) [Liquiritigenin 4′-O-glucuronide, liquiritigenin 4′-O-glucuronide], in data set [2], the “activity against ROS (in words)” value is “no activity” and the “Antioxidant activity, IC50, Hydrogen Peroxide” value is “not detectable even at the highest concentration”. Moreover, the “anti-ROS activity of glucuronide compared with its aglycone” value in data set [2] (Figure 4) was “no activity”. In data set [1] (rat plasma), this molecule had an AUC(0-t) of 522 ng·h/mL, a maximum concentration (Cmax) of 84.1 ng/mL, a half-life of 136 min and a tmax of 2.00 H.

Consider `O=C(O)c1cc(O)c(O)c(O)c1` [Gallic acid], for which the “plasma concentration (not detected)” value in data set [1] (setting [4]) is on record as < 10 ng/mL.

In data set [1] (rat plasma), `O=C(C=Cc1ccc(OC2OC(C(=O)O)C(O)C(O)C2O)cc1)c1ccc(O)cc1O` (stereo not shown) [Isoliquiritigenin 4-O-glucuronide, isoliquiritigenin 4-O-glucuronide] gave an area under the curve AUC(0-t) of 1.84 ng·h/mL, a Cmax of 0.388 ng/mL, a half-life of 341 min and a tmax of 0.250 H.

Turning to `O=c1c(-c2ccc(O)cc2)coc2cc(O)cc(O)c12` [genistein], the concentration at 24 h was determined as 78.3 ng/mL in data set [1] (rat plasma, read-out: plasma concentration after β-glucuronidase treatment) and 0.975 ng/mL in data set [1] (rat plasma, read-out: plasma concentration before β-glucuronidase treatment).

For `COc1cc(C(=O)O)cc(O)c1O` [3-O-methylgallic acid], in data set [2], the “activity against ROS (in words)” value was “strong activity”. Besides, the “activity against nitric oxide (in words)” value in data set [3] is recorded as “not nitric oxide”.

For `O=C(O)C1OC(Oc2cc(O)c3c(=O)c(-c4ccc(O)cc4)coc3c2)C(O)C(O)C1O` (stereo not shown) [Genistein 7-O-glucuronide, genistein 7-O-glucuronide], the “inhibition (anti-ROS activity)” value in data set [2] (at 134 ng/mL, statistically significant, Figure 4) worked out at 25%. For the same molecule, the “anti-ROS activity of glucuronide compared with its aglycone” value in data set [2] (Figure 4) is on record as “completely identical to that of their aglycones”. Also, the “Antioxidant activity, IC50, Hydrogen Peroxide” value in data set [2] came out at 0.638 µg/mL. For the same molecule, the plasma concentration entry in data set [1] (rat plasma at 10 and 24 h after oral JHT) is “approximately 50 ng/mL”. In data set [1] (rat plasma), the AUC(0-t) is 812 ng·h/mL, the Cmax amounted to 53.4 ng/mL and the tmax is on record as 24.0 H. This molecule also registered a tmax in data set [1] (rat plasma, listed as GEN-7G) of 24 H.

On to `COc1c2c(cc3oc(CO)cc(=O)c13)O[C@H](C(C)(C)O)C2` [Cimifugin, cimifugin, reference compound], for which, in data set [2], the “activity against ROS (in words)” value is recorded as “no activity”. Moreover, the “appearance / detection in plasma” value in data set [1] (setting [4]) was “identified by major peaks”. The “activity against nitric oxide (in words)” value in data set [3] is “no activity”.

Regarding `O=C1C[C@@H](c2ccc(O[C@@H]3O[C@H](CO)[C@@H](O)[C@H](O)[C@H]3O)cc2)Oc2cc(O)ccc21` [Liquiritin], the concentration at 1 h was 39.1 ng/mL in data set [1] (rat plasma, 1 h after oral JHT 2 g/kg, read-out: plasma concentration after β-glucuronidase treatment) and 2.4 ng/mL in data set [1] (setting [5]).

For the molecule `O=C1C[C@@H](c2ccc(O)cc2)Oc2cc(O)ccc21` [liquiritigenin], the “activity against ROS (in words)” value in data set [2] was “strong activity”. Besides, in data set [1] (setting [6]), the “plasma concentration after β-glucuronidase treatment” value is recorded as 200 ng/mL and the “plasma concentration before β-glucuronidase treatment” value is listed as 0.873 ng/mL.

As for `COc1ccc(C2CC(=O)c3c(O)cc(OC4OC(C(=O)O)C(O)C(O)C4O)cc3O2)cc1O` (stereo not shown) [Hesperetin 7-O-glucuronide, hesperetin 7-O-glucuronide], the “anti-ROS activity of glucuronide compared with its aglycone” value in data set [2] (Figure 4) was “partially decreased”. The “Antioxidant activity, IC50, Hydrogen Peroxide” value in data set [2] is 4.27 µg/mL. In data set [1] (rat plasma), this molecule showed an AUC(0-t) of 190 ng·h/mL, a Cmax of 34.2 ng/mL, a half-life of 179 min and a tmax of 4.00 H.

`O=C(O)[C@H]1O[C@@H](Oc2c(-c3ccc(O)c(O)c3)oc3cc(O)cc(O)c3c2=O)[C@H](O)[C@@H](O)[C@@H]1O` [QCN-3G, quercetin 3-O-glucuronide]: the “appearance / detection in plasma” value in data set [1] (setting [4]) is “did not appear in the plasma”.

On to `O=C1CC(c2ccc(O)cc2)Oc2cc(OC3OC(C(=O)O)C(O)C(O)C3O)ccc21` (stereo not shown) [Liquiritigenin 7-O-glucuronide, liquiritigenin 7-O-glucuronide], for which, in data set [2] (Figure 4), the “anti-ROS activity of glucuronide compared with its aglycone” value was “completely identical to that of their aglycones”. In addition, the “Antioxidant activity, IC50, Hydrogen Peroxide” value in data set [2] was 0.765 µg/mL. Besides, in data set [1] (rat plasma), the AUC(0-t) was 223 ng·h/mL, the Cmax was 35.6 ng/mL, the half-life is 163 min and the tmax is listed as 2.00 H.

In the case of `O=C(C=Cc1ccc(O)cc1)c1ccc(OC2OC(C(=O)O)C(O)C(O)C2O)cc1O` (stereo not shown) [Isoliquiritigenin 4′-O-glucuronide, isoliquiritigenin 4′-O-glucuronide], the “anti-ROS activity of glucuronide compared with its aglycone” value in data set [2] (Figure 4) was “completely identical to that of their aglycones”. In addition, the “Antioxidant activity, IC50, Hydrogen Peroxide” value in data set [2] came to 0.691 µg/mL. In addition, in data set [1] (rat plasma), the exposure AUC(0-t) amounted to 80.8 ng·h/mL, the Cmax came to 15.8 ng/mL, the half-life is 135 min and the tmax was 0.250 H.

In the case of `CC1(C)[C@@H](O)CC[C@]2(C)[C@H]3C(=O)C=C4[C@@H]5C[C@@](C)(C(=O)O)CC[C@]5(C)CC[C@@]4(C)[C@]3(C)CC[C@@H]12` [Glycyrrhetic acid, glycyrrhetic acid, reference compound], the “activity against ROS (in words)” value in data set [2] is “no activity”. Also, in data set [1] (setting [4]), the “appearance / detection in plasma” value was “identified by major peaks”. For the same molecule, in data set [3], the “activity against nitric oxide (in words)” value is listed as “no activity”.
